Test results reported in ChEMBL document CHEMBL1128181, “Structure-based design of nonpeptidic HIV protease inhibitors from a cyclooctylpyranone lead structure” (J Med Chem, 1995).

Biological target: Human immunodeficiency virus type 1 protease (Human immunodeficiency virus 1, UniProt Q72874)
Experiment: Inhibitory activity against HIV-I protease.

Structure (SMILES) | Ki [nM]
CC(C)(C)OC(=O)NCCCC(=O)Nc1cccc(C(c2c(O)c3c(oc2=O)CCCCCC3)C2CC2)c1 (stereo unspecified) | 14
O=C(Nc1cccc(C(c2c(O)oc3c(c2=O)CCCCCC3)C2CC2)c1)c1ccc(F)cc1 (stereo unspecified) | 55
CC(C)(C)OC(=O)N[C@H](Cc1cnc[nH]1)C(=O)Nc1cccc(C(c2c(O)c3c(oc2=O)CCCCCC3)C2CC2)c1 (stereo partly specified) | 11
CCC1CCCCCCc2c1oc(O)c(C(c1ccccc1)C1CC1)c2=O (stereo unspecified) | 33
O=C(/C=C/c1ccccc1)Nc1cccc(C(c2c(O)oc3c(c2=O)CCCCCC3)C2CC2)c1 (stereo unspecified) | 470
O=C(Nc1ccccc1)Nc1cccc(C(c2c(O)oc3c(c2=O)CCCCCC3)C2CC2)c1 (stereo unspecified) | 450
CC(C)CCC1CCCCCCc2c1oc(O)c(C(c1ccccc1)C1CC1)c2=O (stereo unspecified) | 50
CCC(c1ccccc1)c1c(O)c2c(oc1=O)CCCCCCC2 (stereo unspecified) | 58.3
CCC(c1ccccc1)c1c(O)c2c(oc1=O)C(Cc1ccccc1)CCCCCC2 (stereo unspecified) | 266
O=C(Nc1cccc(C(c2c(O)oc3c(c2=O)CCCCCC3)C2CC2)c1)c1ccccc1 (stereo unspecified) | 42
CC(C)(C)OC(=O)N[C@@H](Cc1cnc[nH]1)C(=O)Nc1cccc(C(c2c(O)c3c(oc2=O)CCCCCC3)C2CC2)c1 (stereo partly specified) | 3
CCC(c1ccccc1)c1c(O)c2c(oc1=O)C(C)CCCCCC2 (stereo unspecified) | 330
O=C(Cc1ccccc1)Nc1cccc(C(c2c(O)oc3c(c2=O)CCCCCC3)C2CC2)c1 (stereo unspecified) | 33
CC(C)(C)OC(=O)N1CCC[C@H]1C(=O)Nc1cccc(C(c2c(O)c3c(oc2=O)CCCCCC3)C2CC2)c1 (stereo partly specified) | 43
C[C@H](NC(=O)OC(C)(C)C)C(=O)Nc1cccc(C(c2c(O)c3c(oc2=O)CCCCCC3)C2CC2)c1 (stereo partly specified) | 6.9
C[C@@H](NC(=O)OC(C)(C)C)C(=O)Nc1cccc(C(c2c(O)c3c(oc2=O)CCCCCC3)C2CC2)c1 (stereo partly specified) | 32
O=c1c2c(oc(O)c1C(C1CC1)C1CC1)CCCCCCC2 | 57
CCNC(=O)Nc1cccc(C(c2c(O)c3c(oc2=O)CCCCCC3)C2CC2)c1 (stereo unspecified) | 72
O=c1c2c(oc(O)c1C(c1ccccc1)C1CC1)CCCCCC2 (stereo unspecified) | 96
O=c1c2c(oc(O)c1C(c1ccccc1)C1CC1)C(CC1CCCCO1)CCCCCC2 (stereo unspecified) | 120

Second part, the compound after the results:

Ki [nM] | Structure (SMILES)
9 | CCCC1CCCCCCc2c1oc(O)c(C(c1ccccc1)C1CC1)c2=O (stereo in doubt; 11e)
11.7 | OC1=C(C(c2ccccc2)C2CC2)COC2=C1CCCCCCC2 (stereo unspecified)
31 | CCCCC1CCCCCCc2c1oc(O)c(C(c1ccccc1)C1CC1)c2=O (stereo unspecified)
5.5 | CC(C)(C)OC(=O)NCC(=O)Nc1cccc(C(c2c(O)c3c(oc2=O)CCCCCC3)C2CC2)c1 (stereo unspecified)
4 | CC(C)(C)OC(=O)NCCC(=O)Nc1cccc(C(c2c(O)c3c(oc2=O)CCCCCC3)C2CC2)c1 (stereo unspecified)
24 | O=c1c2c(oc(O)c1C(c1ccccc1)C1CC1)C(CC1CC1)CCCCC2 (stereo unspecified)
24 | CCCC(=O)Nc1cccc(C(c2c(O)c3c(oc2=O)CCCCCC3)C2CC2)c1 (stereo unspecified)
24 | O=c1c2c(oc(O)c1C(c1ccccc1)C1CC1)C(CC1CC1)CCCCCC2 (stereo unspecified)
30 | CC(C)CC1CCCCCCc2c1oc(O)c(C(c1ccccc1)C1CC1)c2=O (stereo unspecified)
26 | CCCC1CCCCCCc2c1oc(O)c(C(c1ccccc1)C1CC1)c2=O (stereo in doubt; 11)
28 | COCCC1CCCCCc2c1oc(O)c(C(c1ccccc1)C1CC1)c2=O (stereo unspecified)
